pIC50: −log10 of the molar value.
Columns and labels:
Assay type in all cases: cell-based
HepG2 cells [1] = assay: MTT proliferation assay, HepG2
Protocol: (§1) Difference cell lines HepG2, SMMC-7721, HuH-7, MCF-7, MDA-MB-231, MDA-MB-468, PC9, PC9-AR, PC9-GR, Jurkat and Molt-13 were harvested during log phase; the number of the cells in an original cell suspension was counted; the original cell suspension was diluted to a density of 5×10^4 cells/mL; for a 96-well plate, 100 uL of the cell suspension was transferred to each well; DMSO is used as solvent for negative control; (2E)-3-(6-bromo-2-pyridyl)-2-cyano-N-[(1S)-1-phenylethyl]-2-acrylamide (WP1066CAS: 857064-38-1, with a formula
(§2) or gefitinib was used as a positive control; the naphthylurea compound ID1120B-1 and the phosphate ID1120B-P thereof were diluted with DMSO and added into the 96-well plate to achieve a final concentration of 0.1, 0.3, 1, 3, 10, 30, 100 and 300 μmol/L in each well; the 96-well plate was incubated for 48 h; 10 μL of MTT solvent (5 mg/mL) was added into each well; the 96-well plate was incubated at 37° C. for 4 h; a culture supernatant was discarded; 150 μL of DMSO was added into each well; the 96-well plate was shaken for 10 min on a plate shaker; an optical density (OD) of the resulting product was measured at a wavelength of 490 nm by an ELISA reader. Test results were recorded. A cell growth curve was drawn with the dosage of each compound as abscissa and the absorbance value as ordinate. The half maximum inhibition rates (IC50 value) of the cancer cells were shown in Table 1, FIGS. 1A-1J and FIGS. 2A-2J.

SMMC-7721 cells = assay: MTT proliferation assay, SMMC-7721; conditions: Homo sapiens; SMMC-7721, MTT, 48 h
Protocol: as §1, §2

HuH-7 cells = assay: MTT proliferation assay, HuH-7; conditions: Homo sapiens; HuH-7, MTT, 48 h
Protocol: as §1, §2

MDA-MB-468 cells = assay: MTT proliferation assay, MDA-MB-468; conditions: Homo sapiens, MDA-MB-468, 48 h, MDA-MB-468, MTT
Protocol: (§3) Test results were recorded. A cell growth curve was drawn with the dosage of each compound as abscissa and the absorbance value as ordinate.

MDA-MB-231 cells = assay: MTT proliferation assay, MDA-MB-231; conditions: Homo sapiens; MDA-MB-231, MTT, 48 h
Protocol: as §3

PC9 cells = assay: MTT proliferation assay, PC9; conditions: Homo sapiens, PC-9, 48 h
Protocol: as §3

PC9GR cells = assay: MTT proliferation assay, PC9GR; conditions: 48 h
Protocol: as §3

PC9AR cells = assay: MTT proliferation assay, PC9AR; conditions: 48 h
Protocol: as §3

Jurkat cells = assay: MTT proliferation assay, Jurkat; conditions: 48 h
Protocol: as §1, §2

MOLT-13 cells = assay: MTT proliferation assay, MOLT-13; conditions: MOLT-13, MTT
Protocol: as §1, §2

HepG2 cells [2] = assay: Cell cycle analysis by PI flow cytometry; conditions: HepG2, 48 h; for induction of cells in the G2/M phase / percentage of cells in the G1/S phase: compared with negative control (DMSO); for length of the G2 phase, % of the cell cycle, after treatment: value reached after treatment (increase from DMSO control value)
Protocol: HepG2 cells were harvested during log phase, digested, centrifuged and prepared into a single cell suspension; the number of the cells in the single cell suspension was counted; the cells were seeded into a 12-well plate, with 2×10^5 cells per well; three wells were used as a parallel control design; 16 hours after seeding, the cells were treated with the compounds in a concentration gradient for 48 h; the cells were digested with trypsin and resuspended; the number of the cells in the cell suspension was counted and diluted to 5×10^5 cells/mL; after the digestion was completed, the cell suspension was centrifuged; the supernatant was discarded; the pellet was washed twice with PBS (each time the mixture was centrifuged 2000 rpm for 5 min); the supernatant was discarded; a fixative comprising 980 μL of 70% cold ethanol and 20 μL of 5% BSA (a small amount of BSA reduces cellular stress and damage) was added to each microcentrifuge tube, so that the cells were fixed overnight at 4° C.; the fixative is discarded; the cells were washed three times in PBS to remove residual fixative (each time the mixture was centrifuged at 1000 rpm for 3 min); a DNA quantification kit is used to measure the content of DNA according to the following instruction (Suo Laibao, Beijing): each sample was incubated in 100 μL of RNase A at 37° C. for 30 min; 500 μL of PI (propidium iodide) was added to each sample; each sample was incubated at room temperature for 30 min in the dark; the cell cycle was analyzed by a flow cytometry and a ModFit software; and Graphpad prism 6.0 was used to estimate the percentage of a cell population in the different phases of the cell cycle.

MCF-7 cells = assay: MTT proliferation assay, MCF-7; conditions: Homo sapiens, MCF7; MCF-7, MTT, 48 h; read-out: IC50
Protocol: as §3

HepG2 liver cancer cells = assay: Annexin V-FITC/PI apoptosis flow cytometry; conditions: HepG2, 48 h; for induction of apoptosis: compared with the control group
Protocol: The HepG2 cells were harvested during log phase, digested, centrifuged and prepared into a single cell suspension; the number of the cells in the cell suspension was counted; the cells were seeded into a 12-well plate, with 2×10^5 cells per well; three wells were used as a parallel control design; 16 hours after seeding, the cells were treated with the compounds in a concentration gradient for 48 h; the cells were digested with EDTA-free trypsin and resuspended; the number of the cells in the cell suspension was counted and diluted to 1×10^6 cells/mL; an annexin V apoptosis detection kit was used according to the following instruction (Suo Laibao, Beijing): the cells were washed twice with 1×PBS (each time the mixture was centrifuged at 6000 rpm for 0.5 min), washed once with 1×Binding buffer (and the mixture was centrifuged at 6000 rpm for 0.5 min); the supernatant was discarded; the cells were resuspended with 300 μL of 1×Binding buffer; 5 μL of Annexin V-FITC was added into each tube, and incubated in the dark for 10 min; 5 μL of PI was added into each tube and incubated in the dark for 5 min; and each tube was then inspected on a machine in the dark.

[3] = test system: Cyclin B1 (gene name: CCNB1); assay: qPCR of mRNA expression, CCNB1; conditions: HepG2, 10 μM, 24 h, normalised to β-actin
Protocol: (§4) HepG2 liver cancer cells were seeded in a 6-well plate, with 1×10^6 cells per well, and treated with the compound IY1214B-2 (in 0 and 10 μM concentrations) for 24 h; total RNA was extracted from the HepG2 liver cancer cells by a single-step TRIzol method; the concentration and purity of the total RNA was measured; the total RNA was used as a template; and complementary DNA (cDNA) was synthesized from the RNA template according to the instruction of a reverse transcription kit (Promega); sqRT-PCR and qPCR were used to quantify the expression of the genes CCNB1, CDK1 and SQSTM; and the gene ACTB was used as an internal reference gene for gene expression normalization.
(§5) A 20 μL reaction mix for qPCR contained:
(§6) Cycling conditions comprised:
(§7) After 40 cycles, the cycle threaded (CT) value of the β-actin gene was used as an initial value in comparison with the amount of the amplified product.

CDC2 (gene name: CDK1) = assay: qPCR of mRNA expression, CDK1; conditions: HepG2, 10 μM, 24 h, normalised to β-actin
Protocol: as §4, §5, §6, §7

p62 (gene name: SQSTM) = assay: qPCR of mRNA expression, SQSTM; conditions: HepG2, 10 μM, 24 h, normalised to β-actin
Protocol: as §4, §5, §6, §7

[4] = concentration of 8 μL (so in the source)

SMILES | pIC50 (SMMC-7721 cells) | pIC50 (HuH-7 cells) | pIC50 (MDA-MB-468 cells) | pIC50 (MDA-MB-231 cells) | pIC50 (PC9 cells) | pIC50 (PC9GR cells) | pIC50 (PC9AR cells) | pIC50 (Jurkat cells; Homo sapiens) | pIC50 (MOLT-13 cells; Homo sapiens, MOLT-13, 48 h) | induction of cells in the G2/M phase (HepG2 cells [2]) | percentage of cells in the G1/S phase (HepG2 cells [2]) | pIC50 (HepG2 cells [1]; Homo sapiens, HepG2, 48 h) | pIC50 (MCF-7 cells) | length of the G2 phase, % of the cell cycle, after treatment (HepG2 cells [2]) [%] | induction of apoptosis (HepG2 liver cancer cells) | other results
O=C(NCc1ccccc1)Nc1ccc(OCc2ccc(OCCN3CCCCC3)cc2)c2ccccc12 [ID1120B-1, 1-benzyl-3-(4-((4-(2-(piperidin-1-yl)ethoxy)benzyl)oxy)naphthalen-1-yl)urea] | 5.45 | 5.50 | 5.31 | 4.76 | 4.85 | 4.49 | 5.10 | 5.49 | 4.97 | dramatically induce the liver cancer cells in the G2/M phase in a dose-dependent manner | significantly decrease the percentage of the liver cancer cells in the G1/S phase |  |  |  |  | pIC50 (HepG2 cells [1]; 48 h): 5.78
O=C(NCc1ccccc1)Nc1ccc(OCc2ccc(OCCN3CCCCC3)cc2)c2ccccc12 [ID1120B-P, 1-benzyl-3-(4-((4-(2-(piperidin-1-yl)ethoxy)benzyl)oxy)naphthalen-1-yl)urea phosphate] |  |  |  |  |  |  |  |  |  |  |  | 5.63 |  |  |  | pIC50 (Jurkat cells; phosphate): 5.32; pIC50 (MOLT-13 cells; 48 h, phosphate): 5.01
COc1ccc(NC(=O)Nc2ccc(OCc3ccc(OCCN4CCCCC4)cc3)c3ccccc23)cc1 [IY1214A-1] | 5.45 | 5.56 |  | 5.68 |  |  |  |  |  | dramatically induce the liver cancer cells in the G2/M phase in a dose-dependent manner | significantly decrease the percentage of the liver cancer cells in the G1/S phase | 5.73 | 5.45 | 34.54 | induce apoptosis in the HepG2 liver cancer cells in a dose-dependent manner | apoptosis rate (HepG2 liver cancer cells; 4 μM): 57.7%; apoptosis rate, times higher than that of untreated wells (HepG2 liver cancer cells; 4 μM and 8 μM): more than 2 times; apoptosis rate (HepG2 liver cancer cells; 8 μM): 63%
O=C(Nc1ccc(OC(F)(F)F)cc1)Nc1ccc(OCc2ccc(OCCN3CCCCC3)cc2)c2ccccc12 [IY1214B-2] | 4.50 | 4.64 | 5.41 |  |  |  |  |  |  | dramatically induce the liver cancer cells in the G2/M phase in a dose-dependent manner | significantly decrease the percentage of the liver cancer cells in the G1/S phase | 5.41 |  | 21.71 | induce apoptosis in the HepG2 liver cancer cells in a dose-dependent manner | apoptosis rate (HepG2 liver cancer cells; [4]): 47.1%; apoptosis rate, times higher than that of untreated wells (HepG2 liver cancer cells; [4]): 3.3 times; CCNB1 mRNA level down-regulated by [3]: 20-25%; CDK1 mRNA level down-regulated by (CDC2 (gene name: CDK1)): 20-25%; SQSTM (p62) expression level up-regulated by (p62 (gene name: SQSTM)): 2.5 times
C[C@H](NC(=O)/C(C#N)=C/c1cccc(Br)n1)c1ccccc1 [WP1066, (2E)-3-(6-bromo-2-pyridyl)-2-cyano-N-[(1S)-1-phenylethyl]-2-acrylamide, reference compound] | 4.93 | 5.09 | 4.88 | 4.99 | 5.03 | 4.83 | 5.07 | 5.00 | 4.77 |  |  | 5.04 | 4.74 |  |  | 
